Laboratory results taken from patent US10857167B2, “Use of oligosaccharide compositions to enhance weight gain” (Children's Hospital Medical Center, priority 2015, dated 2020).

System: distal small bowel gene expression
Test: RNA sequencing / transcriptional analysis of small bowel 56 days after ICR (2′-FL signature response)
Format: in vivo, mouse
Source text: Luminal small bowel contents were expressed into AllProtect Tissue Reagent (Qiagen Inc, CA). Bacterial DNA was extracted using the AllPrep DNA/RNA Mini Kit (Qiagen Inc, CA), according to kit instructions and prior to sequencing (described below). Small bowel tissue samples for RNA were placed into RNA Later (Life Technologies, NY). RNA extraction was accomplished following Qiagen RNeasy Plus Kit instruction (Qiagen Inc, CA). All nucleic acid samples were then stored at -80 Celsius until sequenced (described below). Transcriptional analysis was carried out on resected and harvested small bowel samples obtained from operated mice taken to 8 weeks. Murine RNA sequencing libraries were prepared from approximately 1.5 μg RNA using the TruSeq RNA Sample Preparation Kit (Illumina, Calif.) and sequenced using the HiSeq 2000 Sequencing System (Illumina, Calif.) with single-end 50 bp reads. Following removal of primers and barcodes, sequences were aligned to the mm10 genome using reference annotations from UCSC (Rosenbloom et al. (2015) Nucleic acids research 43: […]-681) (n=36,186 entities). Aligned reads were quantified and used to compute reads per kilobase per million mapped reads (RPKM); raw counts were then normalized using the DESeq algorithm and each harvested sample was baselined to its own resected sample. A filter was applied to the data, requiring at least three reads in all samples of at least one of the four experimental conditions (n=14,489 entities). The data discussed in this publication have been deposited in NCBI's Gene Expression Omnibus and are accessible through NCBI Gene Expression Omnibus (GEO) Series accession number GSE72590. Edgar et al. (2002) Nucleic acids research 30: 207-210. In order to characterize the impact of 2'-FL supplementation while accounting for the effect of ileoecal resection, a t-test was applied between resected and harvested samples within control and experimental animals. Significance was set at a p-value of ≤0.05 and a fold change of 3, which generated 2,576 differentially regulated entities across two comparisons. Gene set unions and intersections of the control and experimental gene sets were identified through Venn diagrams. From the master list, the gene list specific to animals supplemented with 2'-FL were removed in order to identify genes differentially regulated only by ICR (n=546 entities); this gene set characterizes the adaptive response. Further, the 2'-FL response (n=2,030 entities) was identified by removing the adaptive response signature described above from the master list, leaving only genes regulated by 2'-FL supplementation after ICR which were not found in the non-supplemented adaptive response. Heatmaps were generated using hierarchical clustering with the Pearson's Centered distance metric and the average linkage rule; both entities and samples were clustered. All genomic analyses described above were performed in Strand NGS (Strand Life Sciences, CA). Gene list functional enrichment was initially discovered using ToppFun, a member of the ToppGene Suite. Chen et al. (2009) Nucleic acids research 37: […]-311. No statistical correction was selected. Gene lists were further analyzed using ClueGO, a plugin for Cytoscape designed to decipher functionally grouped gene ontology and pathway annotation networks. Bindea et al. (2009) Bioinformatics 25: 1091-1093. At the time of data analysis, the annotation files were updated from sources to Jan. 1, 2015. “GO Term Fusion” was enabled to manage ontologic term redundancy and network specificity was set to medium. Results were restricted to pathways with p≤0.05 using Benjamini-Hochberg correction and Kappa scoring was set to 0.4. Biocyc annotations were assigned a rectangle, gene ontology biologic processes were assigned an ellipse, and […] annotations were assigned a diamond shape. No meaning was assigned to size or color. […]

[1] = 2′-FL signature response, harvested vs resected small bowel, 8 weeks

C[C@@H]1O[C@@H](O[C@H]2[C@H](O[C@H]3[C@H](O)[C@@H](O)C(O)O[C@@H]3CO)O[C@H](CO)[C@H](O)[C@@H]2O)[C@@H](O)[C@H](O)[C@@H]1O (stereo partly drawn) [2′-FL, 2′-fucosyllactose]
Fgf15 fold change (FC) [1]: −64.6 | Fmr1nb fold change (FC) [1]: 12.7 | Hemt1 fold change (FC) [1]: 15.4 | Irs2 fold change (FC) [1]: −43.6 | Map3k12 fold change (FC) [1]: 16.2 | Mcpt2 fold change (FC) [1]: 13.4 | P2ry4 fold change (FC) [1]: −22.2 | Rnf150 fold change (FC) [1]: −20.4 | Tmem202 fold change (FC) [1]: 18.0 | Ttc28 fold change (FC) [1]: −24.2 | Fold Change (Pre- to Post-op) (0610040B10Rik): 4.168 | Fold Change (Pre- to Post-op) (1700019L03Rik): 4.251 | Fold Change (Pre- to Post-op) (1700020N01Rik): 4.446 | Fold Change (Pre- to Post-op) (1810011O10Rik): 4.443 | Fold Change (Pre- to Post-op) (1810059H22Rik): 4.23 | Fold Change (Pre- to Post-op) (2010308F09Rik): 14.34 | Fold Change (Pre- to Post-op) (3300005D01Rik): 4.41 | Fold Change (Pre- to Post-op) (9430038I01Rik): 6.474 | Fold Change (Pre- to Post-op) (Atp5j2): 4.445 | Fold Change (Pre- to Post-op) (Atpif1): 4.145 | Fold Change (Pre- to Post-op) (Bambi-ps1): 4.353 | Fold Change (Pre- to Post-op) (Casq1): 4.38 | Fold Change (Pre- to Post-op) (Cd320): 4.215 | Fold Change (Pre- to Post-op) (Coa4): 4.375 | Fold Change (Pre- to Post-op) (Cox7a1): 6.411 | Fold Change (Pre- to Post-op) (Dgcr6): 4.237 | Fold Change (Pre- to Post-op) (Dnah2): 4.392 | Fold Change (Pre- to Post-op) (Dynlt1b): 4.376 | Fold Change (Pre- to Post-op) (Dynlt1c): 4.148 | Fold Change (Pre- to Post-op) (Elof1): 4.343 | Fold Change (Pre- to Post-op) (Fam216a): 4.147 | Fold Change (Pre- to Post-op) (Gm5485): 4.139 | Fold Change (Pre- to Post-op) (Gm6251): 4.383 | Fold Change (Pre- to Post-op) (Gm8274): 4.331 | Fold Change (Pre- to Post-op) (Gm10433): 4.377 | Fold Change (Pre- to Post-op) (Gm10451): 4.182 | Fold Change (Pre- to Post-op) (Hemt1): 15.36 | Fold Change (Pre- to Post-op) (Hint1): 4.482 | Fold Change (Pre- to Post-op) (Hscb): 4.227 | Fold Change (Pre- to Post-op) (Hspb2): 4.189 | Fold Change (Pre- to Post-op) (Ift20): 4.337 | Fold Change (Pre- to Post-op) (Med11): 4.235 | Fold Change (Pre- to Post-op) (Mpc2): 4.128 | Fold Change (Pre- to Post-op) (Ndufa7): 4.362 | Fold Change (Pre- to Post-op) (Ndufaf5): 4.338 | Fold Change (Pre- to Post-op) (Ndufb7): 4.217 | Fold Change (Pre- to Post-op) (Oaz1): 4.347 | Fold Change (Pre- to Post-op) (Ormdl1): 4.184 | Fold Change (Pre- to Post-op) (Pstk): 4.142 | Fold Change (Pre- to Post-op) (Rabl5): 4.448 | Fold Change (Pre- to Post-op) (Rbp1): 4.364 | Fold Change (Pre- to Post-op) (Rilpl2): 4.235 | Fold Change (Pre- to Post-op) (Rpl34): 4.37 | Fold Change (Pre- to Post-op) (Rps15a-ps4): 4.372 | Fold Change (Pre- to Post-op) (Rps24): 4.131 | Fold Change (Pre- to Post-op) (Rps25): 4.218 | Fold Change (Pre- to Post-op) (S100a6): 4.237 | Fold Change (Pre- to Post-op) (Sec22a): 4.221 | Fold Change (Pre- to Post-op) (Sh2d1b1): 4.118 | Fold Change (Pre- to Post-op) (Smim4): 4.229 | Fold Change (Pre- to Post-op) (Smim6): 4.424 | Fold Change (Pre- to Post-op) (Tm6sf1): 4.173 | Fold Change (Pre- to Post-op) (Tnfsf11): 4.335 | Fold Change (Pre- to Post-op) (Wfdc17): 4.382 | Fold Change (Pre- to Post-op) (Zfp433): 4.119 | Fold Change (Pre- to Post-op) (Zswim7): 4.475 | Fold Change (Pre- to Post-op) (gene AI414108): −9.671 | Fold Change (Pre- to Post-op) (gene Agap2): −9.801 | Fold Change (Pre- to Post-op) (gene Ankrd52): −10.58 | Fold Change (Pre- to Post-op) (gene Apba1): −18.88 | Fold Change (Pre- to Post-op) (gene Atp1a2): −18.47 | Fold Change (Pre- to Post-op) (gene Atp1b2): −18.71 | Fold Change (Pre- to Post-op) (gene Bcl9l): −10.08 | Fold Change (Pre- to Post-op) (gene Car3): −9.901 | Fold Change (Pre- to Post-op) (gene Chd7): −11.26 | Fold Change (Pre- to Post-op) (gene D830031N03Rik): −15.57 | Fold Change (Pre- to Post-op) (gene Ebf1): −10.39 | Fold Change (Pre- to Post-op) (gene Fgf15): −64.61 | Fold Change (Pre- to Post-op) (gene Flt1): −15.79 | Fold Change (Pre- to Post-op) (gene Fscn1): −10.73 | Fold Change (Pre- to Post-op) (gene Gltscr1): −13.3 | Fold Change (Pre- to Post-op) (gene Irs2): −43.6 | Fold Change (Pre- to Post-op) (gene Ldoc1l): −10.25 | Fold Change (Pre- to Post-op) (gene Leprel1): −9.903 | Fold Change (Pre- to Post-op) (gene Lyst): −9.938 | Fold Change (Pre- to Post-op) (gene Nav2): −12.39 | Fold Change (Pre- to Post-op) (gene Nfix): −16.561 | Fold Change (Pre- to Post-op) (gene Nos1ap): −10.38 | Fold Change (Pre- to Post-op) (gene P2ry4): −22.22 | Fold Change (Pre- to Post-op) (gene Parvb): −9.684 | Fold Change (Pre- to Post-op) (gene Peg3): −15.37 | Fold Change (Pre- to Post-op) (gene Plin1): −16.34 | Fold Change (Pre- to Post-op) (gene Polr2a): −18.45 | Fold Change (Pre- to Post-op) (gene Ptpru): −10.01 | Fold Change (Pre- to Post-op) (gene Rgs9): −9.821 | Fold Change (Pre- to Post-op) (gene Rnf150): −20.41 | Fold Change (Pre- to Post-op) (gene Scd1): −20.28 | Fold Change (Pre- to Post-op) (gene Sema3g): −18.02 | Fold Change (Pre- to Post-op) (gene Shank3): −15.22 | Fold Change (Pre- to Post-op) (gene Soga1): −14.4 | Fold Change (Pre- to Post-op) (gene Spen): −14.44 | Fold Change (Pre- to Post-op) (gene Tenm3): −14.72 | Fold Change (Pre- to Post-op) (gene Tiam1): −15.28 | Fold Change (Pre- to Post-op) (gene Tmem151a): −10.06 | Fold Change (Pre- to Post-op) (gene Tomm6os): −12.41 | Fold Change (Pre- to Post-op) (gene Trerf1): −9.926 | Fold Change (Pre- to Post-op) (gene Trim56): −9.711 | Fold Change (Pre- to Post-op) (gene Ttc28): −24.22 | Fold Change (Pre- to Post-op) (gene Zbed6): −9.794 | Fold Change (Pre- to Post-op) (gene Zfp609): −11.22 | number of downregulated entities of the 2′-FL signature response (small bowel 56 days after ICR): 1,247
